Measured values published in publication PMC12204359, “Mechanistic Design of Cell-Penetrating Disruptors for a Phospho-Dependent Interaction” (Research Square, 2025).
Numbering of substitutions follows the chain as printed. Positions of bridges follow the written chain, without caps; N, C: chain ends. Non-standard residues stand in square brackets, D forms with d. Residues, ends and D or L forms follow the SMILES beside them. *: point of attachment. 5FAM = O=C1OC2(c3ccc(O)cc3Oc3cc(O)ccc32)c2ccc(C(=O)*)cc21; 6FAM = O=C1OC2(c3ccc(O)cc3Oc3cc(O)ccc32)c2cc(C(=O)*)ccc21; S5 = C=CCCC[C@](C)(N)C(=O)O

Key:
HeLa cells [1] = details: live HeLa cells, SiR-tubulin, 5 μM peptide, 4 h pre-incubation, imaged 10 h every 5 min; 246–297 mitotic events over 3 imaging sessions
Description: HeLa, MDA-MB-468 and MDA-MB-231 cells were plated in a 35 mm imaging dish (Ibidi) in complete growth medium. Prior to imaging, the DMEM or RPMI growth medium was replaced with Optimem medium (Gibco) supplemented with 10% FBS. Added to the medium was SiR-tubulin (Spirochrome) at 30 nM concentration, SPY555-DNA at 1:18000 dilution; both live-cell imaging probes were used at lower than recommended concentrations to avoid possible effects on mitosis. […] The Lattice Lightsheet 7 microscope was fitted with a 10x/0.4NA water immersion illumination lens, a 48x/1.0NA detection lens and a PCO.edge 4.2 sCMOS camera. Each field of view of approximately 500 μm × 297 μm × 33 μm was imaged at 0.2 μm lightsheet interval with the 640 nm channel (15 ms exposure, 15% laser power) and 561 nm channel (15 ms exposure, 10% laser power) over a 10 h period with scans taken every 5 min. To create movies and frame sequences the cell were imaged every 2.5 min for 5 h. Results were processed using Zeiss LLS software and Fiji (v.2.9.0).

[2] = target: T1, biotinylated Avi-tagged ankle region of clathrin (aa 358–574) (Homo sapiens, UniProt Q00610); assay: SPR binding kinetics; details: Biacore 1K+, average ± SD of duplicates; for kon: CHC aa 358–574 on SA chip, 60 s injection, read-out: ka (SPR)
T1 construct: The biotinylated Avi-tagged ankle region of clathrin (aa 358–574) was immobilised; made in house
T1 sequence (Q00610 358-574 limits assumed): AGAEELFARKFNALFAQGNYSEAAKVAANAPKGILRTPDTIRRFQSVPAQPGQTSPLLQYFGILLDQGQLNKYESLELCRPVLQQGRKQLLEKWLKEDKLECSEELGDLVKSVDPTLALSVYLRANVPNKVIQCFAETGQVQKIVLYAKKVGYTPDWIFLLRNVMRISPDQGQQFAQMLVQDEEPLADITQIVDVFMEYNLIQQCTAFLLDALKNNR
Description: The SPR assays were performed using a Biacore 1K+ instrument (Cytiva Life Sciences). The biotinylated Avi-tagged ankle region of clathrin (aa 358–574) was immobilised on the surface of a Streptavidin SA chip (Cytiva Life Sciences) to the density of 150 RU. The increasing concentrations of peptide analytes were diluted in the running buffer (20 mM HEPES pH 7.5, 150 mM NaCl, 5 mM DTT, 0.05% Tween-20) and injected at a flow rate of 30 μL/min). […] Each concentration was injected at 30 μL/min for 60 s. […] The Biacore evaluation software was used to calculate equilibrium KD values as well as ka and kd constants using 1:1 steady-state affinity model implemented into the BIAevaluation 3.0 software.

HeLa cells [3] = assay: Confocal microscopy of fixed HeLa cells (peptide localisation, endogenous TACC3 and CHC on mitotic spindle); type: cell-based
Description: HeLa cells grown on glass coverslips in complete growth medium and treated with 2.5, 5 and 10 μM FAM-peptides for 5 h. Cells were washed with PBS and fixed with PTEMF (20 mM PIPES, pH 6.8, 10 mM EGTA, 1 mM MgCl2, 0.2% Triton X-100 and 4% paraformaldehyde) for 10 min and permeabilized at room temperature in 0.5% Triton-X100 in PBS for 10 min. Cells were blocked in 3% BSA in PBS for 1 h and incubated overnight with primary antibodies diluted in 3% BSA/PBS buffer followed by 1 h incubation with secondary antibodies. Primary antibodies were as follows: mouse anti-CHC (X22; GTX22731; 1:250), rabbit anti-TACC3 (ab134154, Abcam; 1:500). Secondary antibodies were anti-mouse IgG Atto 594 (1:250, 76085, Merck) and anti-rabbit IgG Atto 647N antibody (1:250, 40839, Merck). Coverslips were mounted with ProLong Gold antifade reagent with DAPI (Invitrogen). Peptides were imaged using their 6-FAM fluorescent tag with a 488 nm argon laser. Imaging was performed on a Zeiss LSM880 upright confocal microscope using a 40x/1.4 NA oil objective. Z-stacks comprising of 9–13 × 1 μm sections were acquired. Images were captured using identical settings. The region of interest (~0.6 μm^2) was quantified in three different locations over the spindle, cytoplasm and in the non-cell region of background. Images were analysed using Fiji (v.2.9.0).

[4] = target: T2, CHC^ankle (clathrin heavy chain aa 358–574) (Homo sapiens, UniProt Q00610); assay: Fluorescence polarisation direct binding assay, CHC ankle WT
T2 construct: we used the minimal ankle region of CHC (CHC^ankle, aa 358–574); GST (TEV-cleavable); made in house
T2 sequence (Q00610 358-574): T1 sequence (Q00610 358-574 limits assumed)
Description: (§1) Binding affinity of CHC and TACC3 peptides was calculated based on fluorescence polarization assays performed as reported previously, using linear and stapled FAM-TACC3 peptides corresponding to aa 549–570 of human TACC3 protein. Linear peptides were purchased from PPR (Fareham, UK); Alta Bioscience (Redditch, UK); Biomatik Corporation (Ontario, Canada). Stock solutions of peptides were 10 mM in DMSO. Binding assays were performed in triplicate in the binding buffer 20 mM HEPES pH 7.5, 150 mM NaCl, 5 mM DTT, 0.05% Tween-20. Data analysis was performed using a one-site specific binding model in Prism (GraphPad software, v10.1.0).

K507A-CHC^ankle = target: T3, K507A-CHC^ankle (Homo sapiens, UniProt Q00610, K507A); assay: Fluorescence polarisation direct binding assay, K507A-CHC ankle; details: direct binding FP, FAM labelled peptides; CHC with K507A substitution; mean of three experiments ± SD; read-out: KD, stapled and control peptides, CHC K507A
T3 construct: we used the minimal ankle region of CHC (CHC^ankle, aa 358–574); GST (TEV-cleavable); made in house
T3 sequence (Q00610 358-574 K507A): T1 sequence (Q00610 358-574 limits assumed) with K150A
From the text: CHC constructs for binding studies were produced during previous work by cloning the respective CHC coding sequence of Q00610 (CLH1_HUMAN) aa 1–574 and 358–574, respectively) into a modified pGEX vector containing a TEV-cleavable GST tag[26]. Point mutations K506A and K507A were introduced by site-directed mutagenesis. GB1-TACC3 is the small protein GB1[47] fused to a short, disordered peptide sequence from human TACC3 (Q9Y6A5, aa 545–573). This hybrid sequence was cloned into a pETM6T1 vector which contains a TEV protease-cleavable N-terminal His-NusA tag.
as §1

Row | kon [2] | fold increase in binding affinity for CHC compared to WT / parental TACC3 sequence ([4]; compared to the WT (parental) TACC3 peptide) | Kd ([2]; CHC aa 358–574 on SA chip 150 RU, 20 mM HEPES pH 7.5, 150 mM NaCl, 5 mM DTT, 0.05% Tween-20, 30 μL/min) | Kd (K507A-CHC^ankle) | Kd ([4]; direct binding FP, FAM labelled peptides, CHC WT (385–574), mean of three experiments ± SD, read-out: KD, stapled and control peptides, CHC WT) | SMILES | median duration of mitosis from NEBD to anaphase onset (HeLa cells [1]) | colocalisation with endogenous TACC3 on the mitotic spindle (HeLa cells [3]; fixed mitotic HeLa cells, FAM-labelled peptides, confocal microscopy) | reduction of endogenous TACC3 levels in the mitotic spindle (HeLa cells [3]; metaphase HeLa cells, peptide 2.5, 5 and 10 μM, 5 h, compared to the negative control SP TACC3 peptide)
1 | – | – | – | – | – | CC(C)C[C@H](NC(=O)[C@H](C)NC(=O)[C@@H]1CCCN1C(=O)[C@H](CC(=O)O)NC(=O)[C@H](C)NC(=O)[C@H](CCC(=O)O)NC(=O)[C@]1(C)CCCC=CCCC[C@](C)(NC(=O)[C@H](CCCCN)NC(=O)[C@H](CCCNC(=N)N)NC(=O)[C@H](CC(C)C)NC(=O)[C@H](C)NC(=O)[C@H](CO)NC(=O)[C@H](CCC(=O)O)NC(=O)[C@H](CCCCN)NC(=O)c2ccc3c(c2)C2(OC3=O)c3ccc(O)cc3Oc3cc(O)ccc32)C(=O)N[C@@H](CCC(=O)O)C(=O)N[C@@H](CC(C)C)C(=O)N[C@@H](CC(C)C)C(=O)N1)C(=O)N[C@@H](CCCNC(=N)N)C(=O)N[C@@H](CC(=O)O)C(=O)N[C@@H](CO)C(N)=O [Neg. control SP TACC3] (6FAM-KESALRK[S5]ELL[S5]EADPALRDS-NH2; staple 8-12) | 55 min | – | –
2 | 1.8e+06 M⁻¹ s⁻¹ | over a hundred-fold higher affinity | – | – | – | CC(C)C[C@H](NC(=O)[C@H](C)NC(=O)[C@H](CO)NC(=O)[C@H](CCC(=O)O)NC(=O)[C@H](CCCCN)NC(=O)c1ccc2c(c1)C(=O)OC21c2ccc(O)cc2Oc2cc(O)ccc21)C(=O)N[C@@H](CCCNC(=N)N)C(=O)N[C@@H](CCCCN)C(=O)N[C@@]1(C)CCCC=CCCC[C@@](C)(C(=O)N[C@@H](CCC(=O)O)C(=O)N[C@@H](Cc2ccccc2)C(=O)N[C@@H](CC(=O)O)C(=O)N2CCC[C@H]2C(=O)N[C@@H](CC(C)C)C(=O)N[C@@H](Cc2ccccc2)C(=O)N[C@@H](CCCNC(=N)N)C(=O)N[C@@H](CC(=O)O)C(=O)N[C@@H](CO)C(N)=O)NC(=O)[C@H](CC(C)C)NC(=O)[C@H](CC(C)C)NC(=O)[C@H](CCC(=O)O)NC1=O [Opt SP TACC3] (5FAM-KESALRK[S5]ELL[S5]EFDPLFRDS-NH2; staple 8-12) | – | colocalised with endogenous TACC3 on the mitotic spindle | ~ 20%
3 | 140000 M⁻¹ s⁻¹ | – | 2.8 ± 0.2 µM | 3.7 ± 1 µM | 34 ± 5 µM | CC(C)C[C@H](NC(=O)[C@H](C)NC(=O)[C@H](CO)NC(=O)[C@H](CCC(=O)O)NC(=O)[C@H](CCCCN)NC(=O)[C@H](Cc1ccccc1)NC(=O)c1ccc2c(c1)C(=O)OC21c2ccc(O)cc2Oc2cc(O)ccc21)C(=O)N[C@@H](CCCNC(=N)N)C(=O)N[C@@H](CCCCN)C(=O)N[C@@]1(C)CCCC=CCCC[C@@](C)(C(=O)N[C@@H](CCCCN)C(=O)N[C@@H](Cc2ccccc2)C(=O)N[C@@H](CC(=O)O)C(=O)N2CCC[C@H]2C(=O)N[C@@H](CC(C)C)C(=O)N[C@@H](CC(C)C)C(=O)N[C@@H](CCCNC(=N)N)C(=O)N[C@@H](CC(=O)O)C(=O)N[C@@H](CO)C(N)=O)NC(=O)[C@H](Cc2ccc(O)cc2)NC(=O)[C@H](CC(C)C)NC(=O)[C@H](CCC(=O)O)NC1=O [SP4E] (5FAM-FKESALRK[S5]ELY[S5]KFDPLLRDS-NH2; staple 9-13) | – | – | –
